These are literature values, as cited in patent publication US20080287418A1, “Extended Release Compositions and Methods for Their Manufacture” (ASTRAZENECA AB, priority 2007, published 2008).

Take `OCCOCCN1CCN(C2=Nc3ccccc3Sc3ccccc32)CC1` [quetiapine, 11-[4-[2-(2-hydroxyethoxy)ethyl]-1-piperazinyl]dibenzo[b,f][1,4]thiazepine]: under “acid”, the Solubility in acid result is reported as “soluble in acid”. Also, the Solubility in water result (water) is given as “slightly soluble in water”.
